From the NIST ThermoML archive (doi:10.1021/je050173+)
± gives the expanded uncertainty stated by the source.

Experiments:
[1] = molar heat capacity at constant pressure; details: 101.33 kPa, Liquid
[2] = for surface tension liquid-gas: Maximal bubble pressure; for viscosity / mass density / thermal conductivity: 101.33 kPa; for viscosity / mass density / thermal conductivity / vapor or sublimation pressure: Liquid; for thermal conductivity: Hot wire method

For `C[Si]1(C)O[Si](C)(C)O[Si](C)(C)O[Si](C)(C)O[Si](C)(C)O1` [decamethylcyclopentasiloxane], which “molar heat capacity at constant pressure” value ([1]; 288.78 K) is on record?
The value was 636.3 ± 4.9 J/K/mol.

And the “molar heat capacity at constant pressure” value ([1]; 293.13 K)?
Its value is 638.5 ± 4.9 J/K/mol.

And the “molar heat capacity at constant pressure” value ([1]; 297.95 K)?
Its value is 640.6 ± 5 J/K/mol.

And the “molar heat capacity at constant pressure” value ([1]; 303.18 K)?
Its value is 643.1 ± 5 J/K/mol.

What about the “molar heat capacity at constant pressure” value ([1]; 308.95 K) of the same molecule?
Its value is 644.5 ± 5 J/K/mol.

What about the “molar heat capacity at constant pressure” value ([1]; 313.15 K) of the same molecule?
Its value is 647.7 ± 5 J/K/mol.

What about the “molar heat capacity at constant pressure” value ([1]; 319 K) of the same molecule?
The value was 650.4 ± 5 J/K/mol.

And the “molar heat capacity at constant pressure” value ([1]; 323.15 K)?
The value was 652.4 ± 5.1 J/K/mol.

And the “molar heat capacity at constant pressure” value ([1]; 329.05 K)?
The value was 655.1 ± 5.1 J/K/mol.

And the “molar heat capacity at constant pressure” value ([1]; 334.74 K)?
Its value is 657.9 ± 5.1 J/K/mol.

What about the “molar heat capacity at constant pressure” value ([1]; 338.5 K) of the same molecule?
The value was 659.5 ± 5.1 J/K/mol.

And the “molar heat capacity at constant pressure” value ([1]; 342.08 K)?
The value was 661.2 ± 5.1 J/K/mol.

What about the “molar heat capacity at constant pressure” value ([1]; 349.25 K) of the same molecule?
Its value is 664.5 ± 5.1 J/K/mol.

What about the “molar heat capacity at constant pressure” value ([1]; 352.2 K) of the same molecule?
Its value is 667.1 ± 5.2 J/K/mol.

What about the “molar heat capacity at constant pressure” value ([1]; 356.83 K) of the same molecule?
Its value is 668 ± 5.2 J/K/mol.

And the “molar heat capacity at constant pressure” value ([1]; 361.28 K)?
The value was 670.1 ± 5.2 J/K/mol.

What about the “molar heat capacity at constant pressure” value ([1]; 366.35 K) of the same molecule?
Its value is 672.4 ± 5.2 J/K/mol.

And the “molar heat capacity at constant pressure” value ([1]; 370.25 K)?
Its value is 674.2 ± 5.2 J/K/mol.

What about the “molar heat capacity at constant pressure” value ([1]; 375.43 K) of the same molecule?
Its value is 676.6 ± 5.2 J/K/mol.

What about the “molar heat capacity at constant pressure” value ([1]; 380.95 K) of the same molecule?
The value was 679.1 ± 5.3 J/K/mol.

And the “molar heat capacity at constant pressure” value ([1]; 388.65 K)?
The value was 682.5 ± 5.3 J/K/mol.

What about the “molar heat capacity at constant pressure” value ([1]; 391.43 K) of the same molecule?
The value was 684 ± 5.3 J/K/mol.

What about the “molar heat capacity at constant pressure” value ([1]; 399.84 K) of the same molecule?
The value was 687.9 ± 5.3 J/K/mol.

And the “molar heat capacity at constant pressure” value ([1]; 401.55 K)?
Its value is 688.6 ± 5.3 J/K/mol.

What about the “molar heat capacity at constant pressure” value ([1]; 407.15 K) of the same molecule?
The value was 691.2 ± 5.4 J/K/mol.

What about the “molar heat capacity at constant pressure” value ([1]; 412.77 K) of the same molecule?
Its value is 693.8 ± 5.4 J/K/mol.

What about the “molar heat capacity at constant pressure” value ([1]; 419.95 K) of the same molecule?
The value was 697.1 ± 5.4 J/K/mol.

And the “molar heat capacity at constant pressure” value ([1]; 425.95 K)?
Its value is 698.5 ± 5.4 J/K/mol.

What about the “molar heat capacity at constant pressure” value ([1]; 433.28 K) of the same molecule?
The value was 703.2 ± 5.4 J/K/mol.

What about the “molar heat capacity at constant pressure” value ([1]; 439.98 K) of the same molecule?
Its value is 706.3 ± 5.5 J/K/mol.

What about the “molar heat capacity at constant pressure” value ([1]; 444.9 K) of the same molecule?
The value was 709.2 ± 5.5 J/K/mol.

What about the “molar heat capacity at constant pressure” value ([1]; 452.4 K) of the same molecule?
Its value is 711.9 ± 5.5 J/K/mol.

What about the “molar heat capacity at constant pressure” value ([1]; 463.15 K) of the same molecule?
The value was 716.9 ± 5.6 J/K/mol.

What about the “molar heat capacity at constant pressure” value ([1]; 469.05 K) of the same molecule?
The value was 719.5 ± 5.6 J/K/mol.

What about the “molar heat capacity at constant pressure” value ([1]; 473.15 K) of the same molecule?
The value was 721.5 ± 5.6 J/K/mol.

What about the surface tension liquid-gas ([2]; 293.15 K) of the same molecule?
Its surface tension liquid-gas is 18.04 ± 0.16 mN/m.

What about the viscosity ([2]; 293.15 K) of the same molecule?
The viscosity was 4.28 ± 0.13 mPa·s.

What about the mass density ([2]; 295.05 K) of the same molecule?
The mass density was 956.75 ± 0.75 kg/m3.

What about the viscosity ([2]; 298.15 K) of the same molecule?
Its viscosity is 3.87 ± 0.12 mPa·s.

What about the thermal conductivity ([2]; 298.15 K) of the same molecule?
Its thermal conductivity is 0.1255 ± 0.0005 W/m/K.

What about the mass density ([2]; 300.1 K) of the same molecule?
The mass density was 951.14 ± 0.78 kg/m3.

And the surface tension liquid-gas ([2]; 303.15 K)?
The surface tension liquid-gas was 17.4 ± 0.16 mN/m.

And the viscosity ([2]; 303.15 K)?
The viscosity was 3.48 ± 0.11 mPa·s.

What about the mass density ([2]; 303.95 K) of the same molecule?
Its mass density is 946.93 ± 0.81 kg/m3.

And the mass density ([2]; 310.3 K)?
The mass density was 939.94 ± 0.85 kg/m3.

And the surface tension liquid-gas ([2]; 313.15 K)?
Its surface tension liquid-gas is 16.71 ± 0.16 mN/m.

And the viscosity ([2]; 313.15 K)?
The viscosity was 2.82 ± 0.09 mPa·s.

What about the mass density ([2]; 313.17 K) of the same molecule?
The mass density was 936.67 ± 0.87 kg/m3.

What about the mass density ([2]; 320.5 K) of the same molecule?
The mass density was 928.72 ± 0.92 kg/m3.

What about the surface tension liquid-gas ([2]; 323.15 K) of the same molecule?
The surface tension liquid-gas was 15.99 ± 0.15 mN/m.

What about the viscosity ([2]; 323.15 K) of the same molecule?
Its viscosity is 2.38 ± 0.07 mPa·s.

What about the mass density ([2]; 325.6 K) of the same molecule?
The mass density was 923.12 ± 0.96 kg/m3.

What about the viscosity ([2]; 332.95 K) of the same molecule?
Its viscosity is 2.02 ± 0.06 mPa·s.

What about the surface tension liquid-gas ([2]; 333.15 K) of the same molecule?
The surface tension liquid-gas was 15.42 ± 0.15 mN/m.

And the mass density ([2]; 333.15 K)?
The mass density was 915.02 ± 1 kg/m3.

What about the mass density ([2]; 340.9 K) of the same molecule?
Its mass density is 906.3 ± 1.1 kg/m3.

And the surface tension liquid-gas ([2]; 343.15 K)?
Its surface tension liquid-gas is 14.67 ± 0.15 mN/m.

What about the viscosity ([2]; 343.15 K) of the same molecule?
Its viscosity is 1.71 ± 0.05 mPa·s.

And the thermal conductivity ([2]; 343.15 K)?
Its thermal conductivity is 0.1186 ± 0.0005 W/m/K.

And the mass density ([2]; 346.05 K)?
Its mass density is 900.69 ± 1.1 kg/m3.

And the “vapor or sublimation pressure” value ([2]; 348.23 K)?
The value was 0.703 ± 0.08 kPa.

What about the “vapor or sublimation pressure” value ([2]; 350.87 K) of the same molecule?
The value was 0.801 ± 0.08 kPa.

And the “vapor or sublimation pressure” value ([2]; 351.11 K)?
The value was 0.82 ± 0.08 kPa.

And the mass density ([2]; 353.1 K)?
Its mass density is 892.8 ± 1.1 kg/m3.

What about the surface tension liquid-gas ([2]; 353.15 K) of the same molecule?
The surface tension liquid-gas was 13.98 ± 0.14 mN/m.

And the viscosity ([2]; 353.15 K)?
The viscosity was 1.48 ± 0.05 mPa·s.

And the “vapor or sublimation pressure” value ([2]; 355.91 K)?
Its value is 1.103 ± 0.08 kPa.

And the “vapor or sublimation pressure” value ([2]; 357.29 K)?
The value was 1.207 ± 0.08 kPa.

What about the “vapor or sublimation pressure” value ([2]; 361.2 K) of the same molecule?
Its value is 1.468 ± 0.081 kPa.

And the surface tension liquid-gas ([2]; 363.15 K)?
Its surface tension liquid-gas is 13.3 ± 0.14 mN/m.

What about the mass density ([2]; 366.4 K) of the same molecule?
Its mass density is 878.24 ± 1.2 kg/m3.

And the “vapor or sublimation pressure” value ([2]; 370.08 K)?
Its value is 2.381 ± 0.081 kPa.

And the surface tension liquid-gas ([2]; 373.15 K)?
The surface tension liquid-gas was 12.64 ± 0.14 mN/m.

What about the mass density ([2]; 373.15 K) of the same molecule?
The mass density was 870.77 ± 1.3 kg/m3.

What about the viscosity ([2]; 373.15 K) of the same molecule?
The viscosity was 1.11 ± 0.04 mPa·s.

What about the “vapor or sublimation pressure” value ([2]; 374.37 K) of the same molecule?
The value was 2.913 ± 0.081 kPa.

What about the “vapor or sublimation pressure” value ([2]; 377.85 K) of the same molecule?
Its value is 3.452 ± 0.081 kPa.

And the “vapor or sublimation pressure” value ([2]; 378.07 K)?
The value was 3.482 ± 0.081 kPa.

And the “vapor or sublimation pressure” value ([2]; 380.74 K)?
Its value is 3.901 ± 0.082 kPa.

What about the mass density ([2]; 381.7 K) of the same molecule?
Its mass density is 861.4 ± 1.4 kg/m3.

What about the mass density ([2]; 391.9 K) of the same molecule?
Its mass density is 850.17 ± 1.4 kg/m3.

And the surface tension liquid-gas ([2]; 393.15 K)?
The surface tension liquid-gas was 11.28 ± 0.13 mN/m.

What about the viscosity ([2]; 393.15 K) of the same molecule?
Its viscosity is 0.86 ± 0.03 mPa·s.

What about the “vapor or sublimation pressure” value ([2]; 394.66 K) of the same molecule?
The value was 7.191 ± 0.083 kPa.

What about the mass density ([2]; 397 K) of the same molecule?
The mass density was 844.55 ± 1.5 kg/m3.

And the “vapor or sublimation pressure” value ([2]; 398.63 K)?
Its value is 8.45 ± 0.084 kPa.

What about the “vapor or sublimation pressure” value ([2]; 402.72 K) of the same molecule?
The value was 9.938 ± 0.084 kPa.

What about the mass density ([2]; 407.2 K) of the same molecule?
Its mass density is 833.32 ± 1.6 kg/m3.

And the “vapor or sublimation pressure” value ([2]; 412.81 K)?
Its value is 14.52 ± 0.086 kPa.

And the surface tension liquid-gas ([2]; 413.15 K)?
The surface tension liquid-gas was 9.93 ± 0.12 mN/m.

What about the mass density ([2]; 413.15 K) of the same molecule?
The mass density was 826.73 ± 1.6 kg/m3.

And the viscosity ([2]; 413.15 K)?
The viscosity was 0.69 ± 0.02 mPa·s.

What about the “vapor or sublimation pressure” value ([2]; 416.46 K) of the same molecule?
Its value is 16.55 ± 0.088 kPa.

What about the mass density ([2]; 417.4 K) of the same molecule?
The mass density was 822.08 ± 1.6 kg/m3.

What about the mass density ([2]; 422.5 K) of the same molecule?
Its mass density is 816.45 ± 1.7 kg/m3.

What about the “vapor or sublimation pressure” value ([2]; 423.94 K) of the same molecule?
Its value is 21.39 ± 0.09 kPa.

And the “vapor or sublimation pressure” value ([2]; 432.91 K)?
Its value is 28.6 ± 0.093 kPa.

What about the surface tension liquid-gas ([2]; 433.15 K) of the same molecule?
Its surface tension liquid-gas is 8.57 ± 0.12 mN/m.

And the mass density ([2]; 433.15 K)?
Its mass density is 804.71 ± 1.8 kg/m3.

What about the “vapor or sublimation pressure” value ([2]; 439.98 K) of the same molecule?
Its value is 35.47 ± 0.097 kPa.

And the mass density ([2]; 442.9 K)?
Its mass density is 793.98 ± 1.9 kg/m3.

What about the “vapor or sublimation pressure” value ([2]; 448.41 K) of the same molecule?
Its value is 45.28 ± 0.1 kPa.

What about the mass density ([2]; 453.15 K) of the same molecule?
Its mass density is 782.6 ± 2 kg/m3.

And the viscosity ([2]; 453.15 K)?
The viscosity was 0.46 ± 0.02 mPa·s.

What about the “vapor or sublimation pressure” value ([2]; 455.39 K) of the same molecule?
Its value is 54.85 ± 0.11 kPa.

And the “vapor or sublimation pressure” value ([2]; 462.39 K)?
Its value is 66.09 ± 0.11 kPa.

And the viscosity ([2]; 473.15 K)?
Its viscosity is 0.39 ± 0.02 mPa·s.

What about the “vapor or sublimation pressure” value ([2]; 479.53 K) of the same molecule?
Its value is 100.9 ± 0.13 kPa.

What about the viscosity ([2]; 493.15 K) of the same molecule?
Its viscosity is 0.33 ± 0.01 mPa·s.
